Experimental data: patent US20080153853A1, “USE OF MTKI 1 FOR TREATING OR PREVENTING BRAIN CANCER” (priority 2006, published 2008)

Assays:
[1] = Clinical signs of toxicity (body weight loss, behavioral changes) in treated tumor-bearing rats; conditions: high dose 15 mpk i.v. day 4 and day 18
Description: (§1) MTKI 1 (Compound 1 in the figures hereinafter) was dissolved in a solution of 20% Hydroxypropyl-β-cyclodextrine (20% β-HP-Cyclodextrin, pH 4.0) and given by oral gavage, daily for a period of fourteen days starting four days post inoculation of the cells, i.e. from day 4-17. Vehicle treated animals only received the β-HP-Cyclodextrin solution.
(§2) The reference compound BCNU (Carmustin) was dosed intravenously on day 4 and day 18.

[2] = system: A431 vulval carcinoma cells (s.c. tumor); assay: Subcutaneous injection of A431 cells in rats: s.c. tumor growth; type: in vivo, rat; conditions: for Effect on subcutaneous A431 tumor growth (median s.c. tumor volumes, FIG. 1): MTKI 1 p.o. at all doses tested (50, 75, 100 mpk), BCNU i.v. day 4 and day 18; for Treatment versus Control (taking control as 100%), median s.c. A431 tumor volume: day 18, 24 hr after last treatment
Description: A431 (ATCC, Rockville, Md. USA) vulval carcinoma cells were stereo-tactically injected into athymic nude rats and mice. Tumor growth delay was followed by using animal survival as readout in the rat study or using MRI imaging in the case of the mouse study. Subcutaneous Injection of Cells in Rats The same day of the stereotaxic injection, rats were injected subcutaneously with A431 cells at D0. The tumor was obtained in rats by subcutaneous (SC) injection of 1×10^7 A431 cells in RPMI medium (200 μl) in their right flank. For subcutaneous injection of tumor cells, rats were anesthetised by inhalation of Isoflurane Forene (Minerve, Bondoufle, France). MTKI 1 (Compound 1 in the figures hereinafter) was dissolved in a solution of 20% Hydroxypropyl-β-cyclodextrine (20% β-HP-Cyclodextrin, pH 4.0) and given by oral gavage, daily for a period of fourteen days starting four days post inoculation of the cells, i.e. from day 4-17. Vehicle treated animals only received the β-HP-Cyclodextrin solution. The reference compound BCNU (Carmustin) was dosed intravenously on day 4 and day 18.

[3] = system: A431 vulval carcinoma cells (intracranial tumor); assay: Stereotaxic injection of A431 cells in the brain of rats: animal survival; type: in vivo, rat; conditions: rats with intracranial and s.c. A431 tumors, vehicle 49
Text: A431 (ATCC, Rockville, Md. USA) vulval carcinoma cells were stereo-tactically injected into athymic nude rats and mice. Tumor growth delay was followed by using animal survival as readout in the rat study or using MRI imaging in the case of the mouse study.
Stereotaxic Injection of Cells in the Brain of Rats
Forty (40) rats (Wistar, BDIX or Sprague Dawley) in part I and 40 nude rats were sterotaxically injected with cells at D0. For stereotaxic injection of tumor cells, rats were anesthetised by an intramuscular injection of a Ketamine (Ketamine500®, Ref 043KET204, Centravet, France) and Xylazine (Rompun®, Ref 002ROM001, Centravet, France) mixture (2/1, v/v, 70 and 15 mg/kg, respectively). 1×10^5 A431 Cells were stereotaxically injected using 4 independant stereotaxic apparatus (Kopf Instrument, Germany and Stoelting Company, USA) in the right frontal lobe with 1×10^5 tumor cells re-suspended in 5 μl of RPMI medium. Five μl of the cell suspension was injected according to SOP No TEC-083/001 at 0.5 μl/min. After cells injection, rats were observed during 1 hour.
as §1, §2

| Compound | Clinical signs of toxicity, i.e. body weight loss [1] | Effect on subcutaneous A431 tumor growth (median s.c. tumor volumes, FIG. 1) [2] | Treatment versus Control (taking control as 100%), median s.c. A431 tumor volume ([2]; 50 mpk p.o. QDx14 (day 4-17)) [%] | Treatment versus Control (taking control as 100%), median s.c. A431 tumor volume ([2]; 75 mpk p.o. QDx14 (day 4-17)) [%] | Treatment versus Control (taking control as 100%), median s.c. A431 tumor volume ([2]; 100 mpk p.o. QDx14 (day 4-17)) [%] | Survival times (50%) ([3]; 50 mpk p.o. daily day 4-17) [days] | Survival times (50%) ([3]; 75 mpk p.o. daily day 4-17) [days] | Survival times (50%) ([3]; 100 mpk p.o. daily day 4-17) [days] |
| --- | --- | --- | --- | --- | --- | --- | --- | --- |
| O=NN(CCCl)C(=O)NCCCl [BCNU, reference compound] | may have induced some mild toxicity | no effect | – | – | – | – | – | – |
| COc1cc2ncnc3c2cc1OCCCCCN(C)Cc1ccc(Br)cc1N3 [MTKI 1, 4,6-ethanediylidenepyrimido[4,5-b][6,1,12]benzoxadiazacyclo-pentadecine, 17-bromo-8,9,10,11,12,13,14,19-octahydro-20-methoxy-13-methyl] | – | clearly inhibited | 5.37 | 4.29 | 3.17 | 61 | 83 | 88 |
